The source of these data is patent US6020344A (priority 1998, dated 2000).

Data set [1] deals with T1, Salmonella typhimurium sialidase (Salmonella typhimurium, UniProt P29768). The settings on record: for competitive inhibitor potency (in words): summary statement.
The target of data set [2] is T2, Vibrio cholerae sialidase (Vibrio cholerae serotype O1, UniProt P0C6E9). In words: biochemical.
Another data set has as its target bacterial sialidases. In kind it is biochemical. The settings on record: read-out: Ki (range).
Data set [3] deals with Clostridium perfringens sialidase. The format is biochemical. Conditions: for binding/inhibition of 5a compared with 5b (in words): 5a vs 5b; for affinity relative to substrate (in words): Ki vs substrate Km; for Ki: Table 1, competitive inhibition fit; for competitive inhibitor potency (in words): summary statement.
The target of data set [4] is T1, Salmonella typhimurium sialidase. In words: biochemical.
Data set [5] has as its target T2, Vibrio cholerae sialidase.
In another data set the test system is influenza neuraminidase. The settings on record: literature; FANA compared with DANA; cited from earlier work.
For data set [6] the following is noted: carboxyl group adjacent to the anomeric carbon; cited from earlier work.
For data set [7], the system named is CC(=O)NC1C(O)CC(Oc2ccc([N+](=O)[O-])cc2)(C(=O)O)OC1C(O)C(O)CO. As to the kind of experiment: purified protein, by the assay type. Conditions: pH 5.5; 30.0 °C.

Entries after “also recorded” stand apart in the source; their conditions may differ. Where two headings read alike, the source gives them in different places.

T1 sequence (P29768 whole entry): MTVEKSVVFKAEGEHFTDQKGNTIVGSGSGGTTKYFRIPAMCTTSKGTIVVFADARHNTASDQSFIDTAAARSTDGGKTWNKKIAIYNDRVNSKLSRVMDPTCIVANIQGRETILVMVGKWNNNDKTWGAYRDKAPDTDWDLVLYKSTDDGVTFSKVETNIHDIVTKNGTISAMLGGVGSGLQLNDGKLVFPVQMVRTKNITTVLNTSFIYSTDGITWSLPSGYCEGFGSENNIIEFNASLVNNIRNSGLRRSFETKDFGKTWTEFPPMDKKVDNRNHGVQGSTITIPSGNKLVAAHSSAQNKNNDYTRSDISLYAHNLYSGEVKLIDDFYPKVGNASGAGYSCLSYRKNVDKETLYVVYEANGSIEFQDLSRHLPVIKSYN
T2 sequence (P0C6E9 25-781): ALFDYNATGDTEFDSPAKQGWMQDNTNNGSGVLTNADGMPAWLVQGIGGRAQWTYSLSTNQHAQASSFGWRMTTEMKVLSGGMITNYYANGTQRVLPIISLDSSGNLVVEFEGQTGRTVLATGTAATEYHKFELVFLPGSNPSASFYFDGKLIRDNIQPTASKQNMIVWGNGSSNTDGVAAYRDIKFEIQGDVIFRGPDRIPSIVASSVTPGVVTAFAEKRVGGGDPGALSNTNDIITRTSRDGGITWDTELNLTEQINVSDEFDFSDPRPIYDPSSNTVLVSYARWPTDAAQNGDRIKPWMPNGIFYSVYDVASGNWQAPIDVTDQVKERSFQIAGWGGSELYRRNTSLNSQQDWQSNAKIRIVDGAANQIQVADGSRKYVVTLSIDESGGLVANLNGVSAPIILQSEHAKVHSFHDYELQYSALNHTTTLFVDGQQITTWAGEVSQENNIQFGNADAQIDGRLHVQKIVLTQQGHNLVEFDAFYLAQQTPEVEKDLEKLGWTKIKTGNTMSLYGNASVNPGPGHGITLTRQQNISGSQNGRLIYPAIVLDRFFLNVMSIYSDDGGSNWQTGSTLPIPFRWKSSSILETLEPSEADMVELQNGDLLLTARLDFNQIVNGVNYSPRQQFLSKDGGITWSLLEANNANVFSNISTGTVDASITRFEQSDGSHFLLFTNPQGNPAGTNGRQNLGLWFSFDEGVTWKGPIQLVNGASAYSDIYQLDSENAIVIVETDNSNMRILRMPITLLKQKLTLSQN

For orientation: Ki means the equilibrium dissociation constant of an inhibitor or competing ligand from its target. Take `CC(=O)N[C@H]1[C@H](O)CN(C(Cc2ccccc2)C(=O)O)C[C@@H]1O` (relative stereo) [±5b, trans-trans-5-N-(1'-carboxy-benzyl-ethyl)-3,5-dihydroxy-4-acetamidopiperidine]: the “binding of ±5b relative to 5a” value in data set [1] (5b vs 5a) is approximately 5 times more tightly. Besides, the “binding of ±5b relative to 5a (in words)” value in data set [1] (5b vs 5a) and in data set [5] (5b vs 5a) was “bound tighter than 5a” throughout. Also, the “type of inhibition (double reciprocal plot)” value in [1] (FIG. 4) is “competitive”. Also, the “binding relative to the p-nitrophenyl glycoside substrate” value in data set [1] (Ki vs substrate Km) and in data set [5] (Ki vs substrate Km) was “approximately 2 × tighter” in each case. Also, the “competitive inhibitor potency (in words)” value in data set [1] and in data set [3] was “sub-millimolar competitive inhibitors” each time. For the same compound, the Ki in [2] is 1500 ± 200 µM; on bacterial sialidases, 100 to 1000 µM; in data set [3] (pH 5.5, 30° C.) it was 500 ± 70 µM; in data set [4], 560 ± 30 µM. Further, the “binding/inhibition of 5a compared with 5b (in words)” value is on record as “inhibited to the same extent” in data set [3] and “no net energetic advantage over binding 5a exists; also recorded: no preference” in data set [3] (listed as 5b). The “affinity relative to substrate (in words)” value in data set [3] is “slightly lower affinity than substrate”. In addition, the “binding / inhibition (in words)” value in [5] is “modest inhibitor”; in [5] (listed as 5b) it was “bind weakly”.

The term Km denotes the substrate concentration at which the rate is half of its maximum. As to `CC(=O)NC1C(O)CC(Oc2ccc([N+](=O)[O-])cc2)(C(=O)O)OC1C(O)C(O)CO` [2-O-(p-nitrophenyl)-a-D-N-acetylneuraminic acid, reference compound], in [3] (pH 5.5, 30° C.), the Km was found to be 280 ± 30 µM.

For the compound `CC(=O)N[C@H]1[C@H](O)CN(CC(=O)O)C[C@@H]1O` [Compound 5a], the “competitive inhibitor potency (in words)” value in data set [1] and in data set [3] was “sub-millimolar competitive inhibitors” each time. Also, the Ki in data set [2] is more than 2000 µM; on bacterial sialidases it was 100 to 1000 µM; in [3] (pH 5.5, 30° C.) it was 400 ± 100 µM; in data set [4], 2500 ± 400 µM. The “binding/inhibition of 5a compared with 5b (in words)” value in data set [3] is given as “inhibited to the same extent; also recorded: no preference”. Further, the “affinity relative to substrate (in words)” value in data set [3] is on record as “slightly lower affinity than substrate”. The “binding / inhibition (in words)” value in data set [5] is given as “bind weakly”. Also, the “inhibition at concentrations up to / below 2 mM” value in data set [5] (up to 2 mM 5a, pH 5.5, 30° C.) was “No inhibition; also recorded: did not show inhibition”.

With `CC(=O)N[C@H]1[C@H]([C@H](O)[C@H](O)CO)OC(C(=O)O)=C[C@@H]1O` [DANA, 2-deoxy-2,3-dehydro-N-acetylneuraminic acid], the “in vitro inhibition of influenza neuraminidase (in words)” value in the data set on influenza neuraminidase is “effective in vitro inhibitor of NA; also recorded: among the most potent thus far described”.

Take `O=C(O)C1=C[C@H](O)[C@@H](NC(=O)C(F)(F)F)[C@H]([C@H](O)[C@H](O)CO)O1` [FANA, 2-deoxy-2,3-dehydro-N-(trifluoroacetyl) neuraminic acid]: in the data set on influenza neuraminidase, the “in vitro inhibition of influenza neuraminidase (in words)” value is listed as “greater in vitro activity”.

With `CC(=O)N[C@H]1[C@H]([C@H](O)[C@H](O)CO)OC(O)(C(=O)O)C[C@@H]1O` (stereo partly drawn) [N-acetyl neuraminic acid], the pKa in data set [6] is listed as ~ 2.8.

Regarding “Salmonella typhimurium sialidase (Salmonella enterica subsp. enterica serovar Typhimurium str. LT2)”, the Km in data set [7] was determined as 1200 µM.

Regarding “Vibrio cholerae sialidase (Vibrio cholerae O1 biovar El Tor str. N16961)”, the Km in data set [7] was found to be 2700 µM.
